From patent US12077503B2, “Substituted cyclic amides and their use as herbicides” (FMC CORPORATION, priority 2015, dated 2024)

What was measured:
Type in all cases: in vivo
[1] = tested on: giant foxtail (Setaria faberi); test: Test G Post-Emergence Protocol; details: Setaria faberi, post-emergence, 312 h; for pest or weed control at 15.625 g/ha: 15.625 g ai/ha, evaluated after 13 days (100=total damage to plant; 0=no damage to plant), read-out: Foxtail, Giant damage rating; for pest or weed control at 62.5 g/ha: 62.5 g ai/ha, read-out: Foxtail, Giant damage rating (100=total damage to plant; 0=no damage to plant); for pest or weed control at 62.5 g/ha / pest or weed control at 250 g/ha: evaluated after 13 days; for pest or weed control at 250 g/ha: 250 g ai/ha, read-out: damage to plant, Foxtail, Giant (100=total damage to plant; 0=no damage to plant)
Summary of the method: (§1)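 Eight days post-sowing, plants received a spray of test compound (acetone/water 50:50, 0.5% Tween 20) at 15.625, 62.5 or 250 g/ha. Glasshouse regime thereafter: 24/16 °C, 14 h light, 65% humidity. Assessment after 13 days on a 0–100 damage scale.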

[2] = tested on: redroot pigweed (Amaranthus retroflexus); test: Test G Post-Emergence Protocol; details: Amaranthus retroflexus, post-emergence, 312 h; for pest or weed control at 15.625 g/ha: 15.625 g ai/ha, evaluated after 13 days (100=total damage to plant; 0=no damage to plant), read-out: Pigweed, Redroot damage rating; for pest or weed control at 62.5 g/ha: 62.5 g ai/ha, read-out: Pigweed, Redroot damage rating (100=total damage to plant; 0=no damage to plant); for pest or weed control at 62.5 g/ha / pest or weed control at 250 g/ha: evaluated after 13 days; for pest or weed control at 250 g/ha: 250 g ai/ha, read-out: damage to plant, Pigweed, Redroot (100=total damage to plant; 0=no damage to plant)
Summary of the method: as §1

[3] = tested on: velvetleaf (Abutilon theophrasti); test: Test G Post-Emergence Protocol; details: Abutilon theophrasti, post-emergence, 312 h; for pest or weed control at 15.625 g/ha: 15.625 g ai/ha, evaluated after 13 days (100=total damage to plant; 0=no damage to plant), read-out: Velvetleaf damage rating; for pest or weed control at 62.5 g/ha: 62.5 g ai/ha, read-out: Velvetleaf damage rating (100=total damage to plant; 0=no damage to plant); for pest or weed control at 62.5 g/ha / pest or weed control at 250 g/ha: evaluated after 13 days; for pest or weed control at 250 g/ha: 250 g ai/ha, read-out: damage to plant, Velvetleaf (100=total damage to plant; 0=no damage to plant)
Summary of the method: as §1

corn (Zea mays) [4] = test: Test G Post-Emergence Protocol; details: Zea mays, post-emergence, 312 h; for plant injury at 15.625 g/ha: 15.625 g ai/ha, evaluated after 13 days (100=total damage to plant; 0=no damage to plant), read-out: Corn damage rating; for plant injury at 62.5 g/ha: 62.5 g ai/ha, read-out: Corn damage rating (100=total damage to plant; 0=no damage to plant); for plant injury at 62.5 g/ha / plant injury at 250 g/ha: evaluated after 13 days; for plant injury at 250 g/ha: 250 g ai/ha, read-out: damage to plant, Corn (100=total damage to plant; 0=no damage to plant)
Summary of the method: as §1

[5] = tested on: ivy-leaved morning glory (Ipomoea hederacea); test: Test G Post-Emergence Protocol; details: Ipomoea, post-emergence, 312 h; for pest or weed control at 15.625 g/ha: 15.625 g ai/ha, evaluated after 13 days (100=total damage to plant; 0=no damage to plant), read-out: Morningglory, Ivy-leaved damage rating; for pest or weed control at 62.5 g/ha: 62.5 g ai/ha, read-out: Morningglory, Ivy-leaved damage rating (100=total damage to plant; 0=no damage to plant); for pest or weed control at 62.5 g/ha / pest or weed control at 250 g/ha: evaluated after 13 days; for pest or weed control at 250 g/ha: 250 g ai/ha, read-out: damage to plant, Morningglory, Ivy-leaved (100=total damage to plant; 0=no damage to plant)
Summary of the method: as §1

[6] = tested on: barnyardgrass (Echinochloa crus-galli); test: Test G Post-Emergence Protocol; details: Echinochloa crus-galli, post-emergence, 312 h; for pest or weed control at 15.625 g/ha: 15.625 g ai/ha, evaluated after 13 days (100=total damage to plant; 0=no damage to plant), read-out: Barnyardgrass damage rating; for pest or weed control at 62.5 g/ha: 62.5 g ai/ha, read-out: Barnyardgrass damage rating (100=total damage to plant; 0=no damage to plant); for pest or weed control at 62.5 g/ha / pest or weed control at 250 g/ha: evaluated after 13 days; for pest or weed control at 250 g/ha: 250 g ai/ha, read-out: damage to plant, Barnyardgrass (100=total damage to plant; 0=no damage to plant)
Summary of the method: as §1

[7] = tested on: giant foxtail (Setaria faberi); test: Test G Pre-Emergence Protocol; details: Setaria faberi, pre-emergence, 312 h, evaluated after 13 days; for pest or weed control at 15.625 g/ha: 15.625 g ai/ha; for pest or weed control at 15.625 g/ha / pest or weed control at 250 g/ha: read-out: Foxtail, Giant damage rating (100=total damage to plant; 0=no damage to plant); for pest or weed control at 62.5 g/ha: 62.5 g ai/ha, 100=total damage to plant, 0=no damage to plant, read-out: plant damage rating, Foxtail, Giant; for pest or weed control at 250 g/ha: 250 g ai/ha
Summary of the method: (§2)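 Pots of seeds in standard soil were grown for one day in a glasshouse (24/16 °C day/night, 14 h light, 65% humidity), then sprayed with compound in acetone/water 50:50 with 0.5% Tween 20 at 15.625, 62.5 or 250 g/ha. Damage was scored after 13 days on a 0 (none) to 100 (total) scale.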

[8] = tested on: redroot pigweed (Amaranthus retroflexus); test: Test G Pre-Emergence Protocol; details: Amaranthus retroflexus, pre-emergence, 312 h, evaluated after 13 days; for pest or weed control at 15.625 g/ha: 15.625 g ai/ha; for pest or weed control at 15.625 g/ha / pest or weed control at 250 g/ha: read-out: Pigweed, Redroot damage rating (100=total damage to plant; 0=no damage to plant); for pest or weed control at 62.5 g/ha: 62.5 g ai/ha, 100=total damage to plant, 0=no damage to plant, read-out: plant damage rating, Pigweed, Redroot; for pest or weed control at 250 g/ha: 250 g ai/ha
Summary of the method: as §2

[9] = tested on: velvetleaf (Abutilon theophrasti); test: Test G Pre-Emergence Protocol; details: Abutilon theophrasti, pre-emergence, 312 h, evaluated after 13 days; for pest or weed control at 15.625 g/ha: 15.625 g ai/ha; for pest or weed control at 15.625 g/ha / pest or weed control at 250 g/ha: read-out: Velvetleaf damage rating (100=total damage to plant; 0=no damage to plant); for pest or weed control at 62.5 g/ha: 62.5 g ai/ha, 100=total damage to plant, 0=no damage to plant, read-out: plant damage rating, Velvetleaf; for pest or weed control at 250 g/ha: 250 g ai/ha
Summary of the method: as §2

corn (Zea mays) [10] = test: Test G Pre-Emergence Protocol; details: Zea mays, pre-emergence, 312 h, evaluated after 13 days; for plant injury at 15.625 g/ha: 15.625 g ai/ha; for plant injury at 15.625 g/ha / plant injury at 250 g/ha: read-out: Corn damage rating (100=total damage to plant; 0=no damage to plant); for plant injury at 62.5 g/ha: 62.5 g ai/ha, 100=total damage to plant, 0=no damage to plant, read-out: plant damage rating, Corn; for plant injury at 250 g/ha: 250 g ai/ha
Summary of the method: as §2

[11] = tested on: ivy-leaved morning glory (Ipomoea hederacea); test: Test G Pre-Emergence Protocol; details: Ipomoea, pre-emergence, 312 h, evaluated after 13 days; for pest or weed control at 15.625 g/ha: 15.625 g ai/ha, read-out: Morning-glory, Ivy-leaved damage rating (100=total damage to plant; 0=no damage to plant); for pest or weed control at 62.5 g/ha: 62.5 g ai/ha, 100=total damage to plant, 0=no damage to plant, read-out: plant damage rating, Morningglory, Ivy-leaved; for pest or weed control at 250 g/ha: 250 g ai/ha, read-out: Morningglory, Ivy-leaved damage rating (100=total damage to plant; 0=no damage to plant)
Summary of the method: as §2

[12] = tested on: barnyardgrass (Echinochloa crus-galli); test: Test G Pre-Emergence Protocol; details: Echinochloa crus-galli, pre-emergence, 312 h, evaluated after 13 days; for pest or weed control at 15.625 g/ha: 15.625 g ai/ha, read-out: Barnyard grass damage rating (100=total damage to plant; 0=no damage to plant); for pest or weed control at 62.5 g/ha: 62.5 g ai/ha, 100=total damage to plant, 0=no damage to plant, read-out: plant damage rating, Barnyardgrass; for pest or weed control at 250 g/ha: 250 g ai/ha, read-out: Barnyardgrass damage rating (100=total damage to plant; 0=no damage to plant)
Summary of the method: as §2

SMILES | pest or weed control at 15.625 g/ha [1] [%] | pest or weed control at 62.5 g/ha [1] [%] | pest or weed control at 250 g/ha [1] [%] | pest or weed control at 15.625 g/ha [2] [%] | pest or weed control at 62.5 g/ha [2] [%] | pest or weed control at 250 g/ha [2] [%] | pest or weed control at 15.625 g/ha [3] [%] | pest or weed control at 62.5 g/ha [3] [%] | pest or weed control at 250 g/ha [3] [%] | plant injury at 15.625 g/ha (corn (Zea mays) [4]) [%] | plant injury at 62.5 g/ha (corn (Zea mays) [4]) [%] | plant injury at 250 g/ha (corn (Zea mays) [4]) [%] | pest or weed control at 15.625 g/ha [5] [%] | pest or weed control at 62.5 g/ha [5] [%] | pest or weed control at 250 g/ha [5] [%] | pest or weed control at 15.625 g/ha [6] [%] | pest or weed control at 62.5 g/ha [6] [%] | pest or weed control at 250 g/ha [6] [%] | pest or weed control at 15.625 g/ha [7] [%] | pest or weed control at 62.5 g/ha [7] [%] | also measured
Cc1c(F)ccc(NC(=O)[C@@H]2C(=O)N(C)C[C@H]2c2ccc(C(F)(F)F)cc2)c1F (racemic) [Compound 1629] | 0 | 80 | 80 | 10 | 10 | 30 | 20 | 10 | 0 | 0 | 10 | 10 | 20 | 20 | 30 | 0 | 30 | 70 | 30 | 50 | pest or weed control at 250 g/ha [7]: 80%; pest or weed control at 15.625 g/ha [8]: 0%; pest or weed control at 62.5 g/ha [8]: 0%; pest or weed control at 250 g/ha [8]: 0%; pest or weed control at 15.625 g/ha [9]: 0%; pest or weed control at 62.5 g/ha [9]: 0%; pest or weed control at 250 g/ha [9]: 0%; plant injury at 15.625 g/ha (corn (Zea mays) [10]): 0%; plant injury at 62.5 g/ha (corn (Zea mays) [10]): 10%; plant injury at 250 g/ha (corn (Zea mays) [10]): 0%; pest or weed control at 15.625 g/ha [11]: 10%; pest or weed control at 62.5 g/ha [11]: 40%; pest or weed control at 250 g/ha [11]: 50%; pest or weed control at 15.625 g/ha [12]: 10%; pest or weed control at 62.5 g/ha [12]: 0%; pest or weed control at 250 g/ha [12]: 70%
CN1C[C@@H](c2ccc(C(F)(F)F)cc2)[C@H](C(=O)Nc2cc(Cl)n[nH]2)C1=O (racemic) [Compound 1632] | 0 | 0 | 20 | 0 | 0 | 20 | 0 | 0 | 0 | 0 | 0 | 0 | 0 | 0 | 0 | 0 | 0 | 10 | 0 | 0 | pest or weed control at 250 g/ha [7]: 0%; pest or weed control at 15.625 g/ha [8]: 0%; pest or weed control at 62.5 g/ha [8]: 0%; pest or weed control at 250 g/ha [8]: 0%; pest or weed control at 15.625 g/ha [9]: 0%; pest or weed control at 62.5 g/ha [9]: 0%; pest or weed control at 250 g/ha [9]: 0%; plant injury at 15.625 g/ha (corn (Zea mays) [10]): 0%; plant injury at 62.5 g/ha (corn (Zea mays) [10]): 0%; plant injury at 250 g/ha (corn (Zea mays) [10]): 0%; pest or weed control at 15.625 g/ha [11]: 0%; pest or weed control at 62.5 g/ha [11]: 0%; pest or weed control at 250 g/ha [11]: 0%; pest or weed control at 15.625 g/ha [12]: 0%; pest or weed control at 62.5 g/ha [12]: 0%; pest or weed control at 250 g/ha [12]: 0%
